Like-named read-outs stand apart in the source and are kept apart here.
How the values were obtained:
[1] = test system: HCT116 (colon) cancer cell line; test: 2D-monolayer antiproliferation (MTT) against HCT116; format: cell-based, human; settings: for IC50: Homo sapiens, HCT-116; for SI (selectivity index) HCT116: IC50 of RPE1 normal cell/IC50 of HCT116
[2] = test system: PaCa2 (pancreatic) cancer cell line; test: 2D-monolayer antiproliferation (MTT) against PaCa2; format: cell-based, human; settings: for 1/(observed property): 1/observed IC50 (μM), PaCa2; for IC50: Homo sapiens, PaCa-2, MTT, 72 h incubation, PaCa2 pancreatic, read-out: IC50, μM ± SEM PaCa2; for SI (selectivity index) PaCa2: IC50 of RPE1 normal cell/IC50 of PaCa2
[3] = test system: MCF7 (breast) cancer cell line; test: 2D-monolayer antiproliferation (MTT) against MCF7; format: cell-based, human; settings: for IC50: Homo sapiens, MTT, 72 h incubation, MCF7 breast, read-out: IC50, μM ± SEM MCF7; for SI (selectivity index) MCF7: IC50 of RPE1 normal cell/IC50 of MCF7
[4] = test system: A549 (lung) cancer cell line; test: 2D-monolayer antiproliferation (MTT) against A549; format: cell-based, human; settings: for IC50: Homo sapiens, MTT, 72 h incubation, A549 lung, read-out: IC50, μM ± SEM A549; for SI (selectivity index) A549: IC50 of RPE1 normal cell/IC50 of A549
[5] = test system: RPE1 (normal human immortalized retinal pigment epithelial cell line); test: cells; format: cell-based; settings: for IC50: Homo sapiens, RPE-1, MTT, normal RPE1 cell, read-out: IC50, μM ± SEM RPE1; for selectivity index (SI): IC50 against RPE1 compared to the tested cancer cell line(s), in words
[6] = target: T1, VEGFR-2 (Homo sapiens, UniProt P35968); test: cell-based; format: cell-based; settings: for inhibition at 10 µM: HCT-116, HCT116; for VEGFR-2 pg/mL ± SEM HCT116: at 10 μM, control 317.80 ± 3.5
T1 construct: endogenous in cells; host or cells: HCT116, PaCa2, MCF7 (human cancer cell lines, ATCC origin)
T1 sequence (P35968 20-1356): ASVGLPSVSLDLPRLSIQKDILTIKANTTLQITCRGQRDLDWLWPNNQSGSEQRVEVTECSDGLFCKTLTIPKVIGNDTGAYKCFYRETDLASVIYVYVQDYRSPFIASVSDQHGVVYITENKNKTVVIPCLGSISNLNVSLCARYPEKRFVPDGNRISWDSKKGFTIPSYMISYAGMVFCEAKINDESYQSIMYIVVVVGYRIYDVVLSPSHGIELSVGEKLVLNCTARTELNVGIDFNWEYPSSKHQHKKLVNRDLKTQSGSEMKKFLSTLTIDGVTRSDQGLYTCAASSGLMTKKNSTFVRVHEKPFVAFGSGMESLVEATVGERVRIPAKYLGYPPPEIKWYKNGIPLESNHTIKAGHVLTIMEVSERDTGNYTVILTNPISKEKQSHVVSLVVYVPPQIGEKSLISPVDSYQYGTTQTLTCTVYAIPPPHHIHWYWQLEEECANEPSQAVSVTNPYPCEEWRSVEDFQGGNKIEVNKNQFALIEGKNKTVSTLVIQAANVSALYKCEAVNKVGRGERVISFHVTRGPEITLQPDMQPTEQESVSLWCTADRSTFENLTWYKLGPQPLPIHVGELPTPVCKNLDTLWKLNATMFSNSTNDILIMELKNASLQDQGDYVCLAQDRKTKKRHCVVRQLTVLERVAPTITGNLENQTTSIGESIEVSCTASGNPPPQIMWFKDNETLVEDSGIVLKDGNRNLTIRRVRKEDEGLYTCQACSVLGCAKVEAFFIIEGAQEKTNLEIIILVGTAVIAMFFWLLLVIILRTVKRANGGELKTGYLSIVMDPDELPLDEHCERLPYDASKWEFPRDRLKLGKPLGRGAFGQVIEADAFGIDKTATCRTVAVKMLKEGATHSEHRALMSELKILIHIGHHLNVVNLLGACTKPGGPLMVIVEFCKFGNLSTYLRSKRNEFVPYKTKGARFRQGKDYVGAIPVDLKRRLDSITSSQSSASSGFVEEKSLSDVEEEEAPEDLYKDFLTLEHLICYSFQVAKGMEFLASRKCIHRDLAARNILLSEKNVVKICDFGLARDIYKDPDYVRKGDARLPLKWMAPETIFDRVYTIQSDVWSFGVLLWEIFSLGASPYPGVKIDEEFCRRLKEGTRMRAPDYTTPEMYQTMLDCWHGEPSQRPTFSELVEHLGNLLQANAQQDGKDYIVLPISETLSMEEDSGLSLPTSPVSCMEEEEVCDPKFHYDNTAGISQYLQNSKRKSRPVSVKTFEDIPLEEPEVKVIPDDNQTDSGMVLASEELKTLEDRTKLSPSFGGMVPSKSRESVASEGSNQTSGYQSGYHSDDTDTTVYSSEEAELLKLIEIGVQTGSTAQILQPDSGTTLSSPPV

[7] = target: T1, VEGFR-2; test: cell-based; format: cell-based; settings: for inhibition at 10 µM: PaCa-2, PaCa2; for VEGFR-2 pg/mL ± SEM PaCa2: at 10 μM, control 326.80 ± 1.9
[8] = target: T1, VEGFR-2; test: cell-based; format: cell-based; settings: for inhibition at 10 µM: MCF7; for VEGFR-2 pg/mL ± SEM MCF7: at 10 μM, control 258.70 ± 2.3
[9] = target: T2, COX-1 (Ovis aries, UniProt P05979); test: biochemical; settings: 3 replicates, read-out: % Inhibition of COX-1 ± SEM
T2 construct: purchased BioVision incorporated USA K548–100
T2 sequence (P05979 25-600): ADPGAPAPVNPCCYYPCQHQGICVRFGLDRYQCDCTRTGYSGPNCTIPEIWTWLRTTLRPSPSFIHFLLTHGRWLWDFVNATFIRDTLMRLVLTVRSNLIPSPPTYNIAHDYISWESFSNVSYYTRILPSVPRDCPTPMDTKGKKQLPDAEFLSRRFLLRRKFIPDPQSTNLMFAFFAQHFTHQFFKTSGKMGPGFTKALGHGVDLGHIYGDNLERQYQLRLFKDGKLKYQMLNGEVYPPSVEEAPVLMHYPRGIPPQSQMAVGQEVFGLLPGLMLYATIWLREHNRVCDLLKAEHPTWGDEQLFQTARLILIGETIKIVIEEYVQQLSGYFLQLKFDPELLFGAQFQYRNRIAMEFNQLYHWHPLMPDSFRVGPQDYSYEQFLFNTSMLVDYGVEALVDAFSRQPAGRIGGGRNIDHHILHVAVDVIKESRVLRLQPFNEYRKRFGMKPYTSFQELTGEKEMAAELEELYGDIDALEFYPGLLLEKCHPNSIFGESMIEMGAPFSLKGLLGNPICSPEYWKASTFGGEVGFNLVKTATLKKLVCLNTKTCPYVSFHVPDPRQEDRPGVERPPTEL

[10] = target: T3, COX-2 (Homo sapiens, UniProt P35354); test: biochemical; settings: for inhibition at 10 µM: 3 replicates, read-out: % Inhibition of COX-2 ± SEM; for SI (selectivity index, COX-2/COX-1): at 10 μM
T3 construct: purchased BioVision incorporated USA K548–100
T3 sequence (P35354 18-604): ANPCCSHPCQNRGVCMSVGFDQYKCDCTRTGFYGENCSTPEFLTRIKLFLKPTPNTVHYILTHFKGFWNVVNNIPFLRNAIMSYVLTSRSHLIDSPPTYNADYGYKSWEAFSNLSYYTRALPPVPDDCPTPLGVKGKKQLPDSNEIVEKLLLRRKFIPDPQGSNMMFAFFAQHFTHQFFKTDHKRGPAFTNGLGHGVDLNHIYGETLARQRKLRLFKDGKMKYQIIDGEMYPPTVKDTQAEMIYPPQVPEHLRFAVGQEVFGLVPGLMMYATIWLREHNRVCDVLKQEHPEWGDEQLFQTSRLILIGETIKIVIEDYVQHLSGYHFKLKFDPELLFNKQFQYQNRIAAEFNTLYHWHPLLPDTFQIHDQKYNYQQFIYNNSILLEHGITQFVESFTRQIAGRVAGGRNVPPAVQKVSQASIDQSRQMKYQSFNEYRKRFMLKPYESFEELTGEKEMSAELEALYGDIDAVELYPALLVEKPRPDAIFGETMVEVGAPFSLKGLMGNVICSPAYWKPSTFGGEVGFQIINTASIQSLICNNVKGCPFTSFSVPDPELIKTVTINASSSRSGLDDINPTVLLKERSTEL

[11] = test system: TNF-α; test: TNF-α inhibitory properties (ELISA), HCT116 cell lysate; format: cell-based, human; settings: for TNF-α % inhibition HCT116 / TNF-α pg/mL (± SEM) HCT116: at 10 μM; for TNF-α pg/mL (± SEM) HCT116: control 95.74 ± 0.5
[12] = test system: TNF-α; test: TNF-α inhibitory properties (ELISA), PaCa2 cell lysate; format: cell-based, human; settings: at 10 μM; for TNF-α pg/mL (± SEM) PaCa2: control 111.8 ± 2.0
[13] = test system: TNF-α; test: TNF-α inhibitory properties (ELISA), MCF7 cell lysate; format: cell-based, human; settings: at 10 μM; for TNF-α pg/mL (± SEM) MCF7: control 83.26 ± 1.1
[14] = MTT, 72 h incubation, HCT116 colon, read-out: IC50, μM ± SEM HCT116
[15] = log of observed IC50 (μM), HCT116, read-out: Log(observed property) (converted)

SMILES | IC50 [1, 14] | SI (selectivity index) HCT116 [1] | IC50 [2] | SI (selectivity index) PaCa2 [2] | IC50 [3] | SI (selectivity index) MCF7 [3] | IC50 [4] | IC50 [5] | inhibition at 10 µM [6] | VEGFR-2 pg/mL ± SEM HCT116 [6] | inhibition at 10 µM [7] | VEGFR-2 pg/mL ± SEM PaCa2 [7] | inhibition at 10 µM [8] | VEGFR-2 pg/mL ± SEM MCF7 [8] | inhibition at 10 µM [9] | inhibition at 10 µM [10] | SI (selectivity index, COX-2/COX-1) [10] | TNF-α % inhibition HCT116 [11] | TNF-α pg/mL (± SEM) HCT116 [11] | TNF-α pg/mL (± SEM) PaCa2 [12] | also measured
CCOP(=O)(OCC)N1C/C(=C\c2ccccc2)C(=O)C2(C1)C(c1ccccc1)CN(C)C21C(=O)Nc2ccc(Cl)cc21 (centres unmarked) [Compound 17c, Diethyl (E)-(5′′-benzylidene-5-chloro-1′-methyl-2,4′′-dioxo-4′-phenyldispiro[indoline-3,2′-pyrrolidine-3′,3′′-piperidin]-1′′-yl)phosphonate] | 6.32 ± 0.132 µM | 2.2 | 9.15 ± 0.154 µM | 1.5 | 5.27 ± 0.172 µM | 2.6 | 12.5 ± 0.205 µM | 13.8 ± 0.423 µM | 86% | 44.50 ± 1.1 pg/mL | 91.3% | 28.43 ± 1.0 pg/mL | 76.7% | 60.40 ± 0.5 pg/mL | 58.6 ± 3.5% | 53.9 ± 1.7% | 1.05 | 66.9% | 31.72 ± 1.2 pg/mL | 33.8 ± 2.2 pg/mL | IC50 [1, 15]: 6.32 µM; 1/(observed property) [2]: 0.1093; SI (selectivity index) A549 [4]: 1.1; TNF-α % inhibition PaCa2 [12]: 69.8%; TNF-α % inhibition MCF7 [13]: 72.2%; TNF-α pg/mL (± SEM) MCF7 [13]: 23.16 ± 0.7 pg/mL
CCOP(=O)(OCC)N1C/C(=C\c2ccc(C)cc2)C(=O)C2(C1)C(c1ccc(C)cc1)CN(C)C21C(=O)Nc2ccc(F)cc21 (centres unmarked) [Compound 17n, Diethyl (E)-(5-fluoro-1′-methyl-5′′-(4-methylbenzylidene)-2,4′′-dioxo-4′-(p-tolyl)dispiro[indoline-3,2′-pyrrolidine-3′,3′′-piperidin]-1′′-yl)phosphonate] | 5.09 ± 0.191 µM | > 9.8 | 15.3 ± 0.911 µM | > 3.3 | 4.37 ± 0.156 µM | > 11.5 | > 50 µM | > 50 µM | 63.7% | 115.30 ± 2.2 pg/mL | 87.5% | 40.70 ± 1.6 pg/mL | 66.9% | 85.60 ± 0.7 pg/mL | 50.6 ± 2.3% | 47.3 ± 1.4% | 1.08 | 9.7% | 86.47 ± 2.4 pg/mL | 96.3 ± 3.0 pg/mL | IC50 [1, 15]: 5.09 µM; 1/(observed property) [2]: 0.06519; selectivity index (SI) [5]: high selectivity index; TNF-α % inhibition PaCa2 [12]: 13.9%; TNF-α % inhibition MCF7 [13]: 0.1%; TNF-α pg/mL (± SEM) MCF7 [13]: 83.17 ± 4.1 pg/mL
CCOP(=O)(OCC)N1C/C(=C\c2ccc(Cl)cc2)C(=O)C2(C1)C(c1ccc(Cl)cc1)CN(C)C21C(=O)Nc2ccccc21 (centres unmarked) [Compound 17h, Diethyl (E)-[5′′-(4-chlorobenzylidene)-4′-(4-chlorophenyl)-1′-methyl-2,4′′-dioxodispiro[indoline-3,2′-pyrrolidine-3′,3′′-piperidin]-1′′-yl]phosphonate] | 3.08 ± 0.165 µM | 2.6 | 6.35 ± 0.17 µM | 1.3 | 4.07 ± 0.054 µM | 2.0 | 4.15 ± 0.288 µM | 8.15 ± 0.675 µM | 83.7% | 51.74 ± 1.5 pg/mL | 94.4% | 18.25 ± 0.6 pg/mL | 79.6% | 52.70 ± 0.7 pg/mL | 53.5 ± 2.8% | 51.5 ± 3.1% | 1.06 | 80.7% | 18.45 ± 1.1 pg/mL | 26.5 ± 0.7 pg/mL | potency fold of the standard drug 5-fluorouracil ([1]; HCT116, ratio of IC50): 6.6 fold; potency fold of the standard drug sunitinib ([1]; HCT116, ratio of IC50): 3.1 fold; IC50 [1, 15]: 3.08 µM; SI (selectivity index) A549 [4]: 2.0; TNF-α inhibition fold of the standard ibuprofen ([11]; 10 μM): 3.6 fold; TNF-α inhibition fold of the standard indomethacin ([11]; 10 μM): 1.9 fold; TNF-α % inhibition PaCa2 [12]: 76.3%; TNF-α % inhibition MCF7 [13]: 74.0%; TNF-α pg/mL (± SEM) MCF7 [13]: 21.65 ± 3.1 pg/mL
CCOP(=O)(OCC)N1C/C(=C\c2ccc(F)cc2)C(=O)C2(C1)C(c1ccc(F)cc1)CN(C)C21C(=O)Nc2ccc(Cl)cc21 (centres unmarked) [Compound 17f, Diethyl (E)-[5-chloro-5′′-(4-fluorobenzylidene)-4′-(4-fluorophenyl)-1′-methyl-2,4′′-dioxodispiro[indoline-3,2′-pyrrolidine-3′,3′′-piperidin]-1′′-yl]phosphonate] | 3.72 ± 0.099 µM | 10.7 | 5.25 ± 0.224 µM | 7.6 | 5.29 ± 0.175 µM | 7.5 | > 50 µM | 39.9 ± 1.16 µM | 86.2% | 43.70 ± 0.9 pg/mL | 91.6% | 27.53 ± 1.1 pg/mL | 75.6% | 63.20 ± 0.9 pg/mL | 57.6 ± 1.1% | 60.8 ± 2.7% | 1.01 | 10.7% | 85.46 ± 1.3 pg/mL | 109.8 ± 4.7 pg/mL | activity fold of sunitinib [2]: 3.2 fold; 1/(observed property) [2]: 0.1904; SI (selectivity index) A549 [4]: < 0.8; selectivity index (SI) [5]: high selectivity index; TNF-α % inhibition MCF7 [13]: 1.0%; TNF-α pg/mL (± SEM) MCF7 [13]: 82.45 ± 4.0 pg/mL
